These results are taken from US12509444B2, “Compounds and methods for CD73 modulation and indications therefor” (Plexxikon Inc., priority 2019, dated 2025).

Molecules are shown by their SMILES.

What is called IC50 is the concentration that gives 50% inhibition.

The target of assay [1] is T1, Human CD73 (amino acid residues 27-549) (Homo sapiens, UniProt P21589).
T1 construct: Human CD73 (amino acid residues 27-549); His tag (N); made in house; host or cells: E. coli
T1 sequence (P21589 27-549): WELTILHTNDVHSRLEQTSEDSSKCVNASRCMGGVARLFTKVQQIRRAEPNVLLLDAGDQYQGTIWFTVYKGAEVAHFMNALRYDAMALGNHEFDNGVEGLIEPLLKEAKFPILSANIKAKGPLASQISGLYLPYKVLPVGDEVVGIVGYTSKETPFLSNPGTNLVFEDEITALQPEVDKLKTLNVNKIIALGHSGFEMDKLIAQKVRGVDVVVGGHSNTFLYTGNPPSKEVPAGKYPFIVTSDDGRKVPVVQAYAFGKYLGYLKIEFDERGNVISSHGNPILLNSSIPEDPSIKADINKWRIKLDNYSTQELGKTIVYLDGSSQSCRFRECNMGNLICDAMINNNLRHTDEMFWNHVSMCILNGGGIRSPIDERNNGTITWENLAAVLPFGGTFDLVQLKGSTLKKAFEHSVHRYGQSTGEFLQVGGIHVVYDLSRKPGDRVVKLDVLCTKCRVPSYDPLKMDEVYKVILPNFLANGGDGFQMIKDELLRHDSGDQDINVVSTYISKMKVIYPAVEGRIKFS
Put plainly: CD73 enzymatic assay (luciferase-based indirect assay, CellTiter-Glo). To be noted: 0.4 nM CD73, 150 μM AMP, 1 hour at room temperature. The assay is classed as biochemical. The essentials: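 Residual AMP inhibits luciferase, so luminescence reports CD73 turnover; read with CellTiter-Glo 2.0 plus 1 μM final ATP, 30 min. Reaction used 0.4 nM N-His CD73 (27-549, E. coli), 150 μM AMP, HEPES pH 7.4 with Tween 20, 1 h at room temperature. IC50 fitted by nonlinear regression.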
On the technique in general: In ATP-based viability assays light output follows the ATP content of the culture.

Another assay addresses T2, human CD73 (Homo sapiens, UniProt P21589).
T2 construct: expressed in transfected cells
T2 sequence (P21589 27-549): T1 sequence (P21589 27-549)
Description: Inhibitor activity against CD73 in cell based assay (CD73 expressing CHO-K1 cells). Conditions: CHO-K1 cells expressing human CD73, 150 μM AMP, 4 hours of incubation; read-out: CHO-K1 CELL VARIANT: CD73 IC50. The method, then: Determine Inhibitor Activity Against CD73 in Cell Based Assay
CD73 expressing CHO-K1 cell clones were generated upon stable transfection of a plasmid expressing human CD73 under the control of CMV promoter. Cells were selected in Ham's F-12K (Kaighn's) media supplemented with 10% fetal bovine serum and 1 mg/ml G418 at 37° C. in a humidified incubator supplied with 5% CO2. The assays were performed as follows. Cells were seeded in a 96 well plate in 50 μL of culture media at a density of 1×10^4 per well. Compound at a maximal concentration of 5 mM was serially diluted 1:3 in DMSO for a total of 8 point titration. A 2 μL aliquot of each dilution point was added to 248 μL culture media and 25 µL was added to each well, providing 10 μM compound at the maximum concentration point. AMP was diluted in culture media and 25 μL was added to each well with a final concentration of 150 μM. 4 wells containing 0.2% DMSO treated cells and AMP served as high controls and 4 wells containing media only with 0.2% DMSO and AMP served as low controls. After 4 hours of incubation, 20 μL of the supernatant was transferred to a 384 well plate. AMP level in supernatant was measured indirectly by adding 5 μL of CellTiter-Glo® 2.0 reagent and 5 μL of ATP with a final concentration of 1 μM. Following incubation of plate at room temperature for 30 minutes, luminescent signal was read on a Tecan plate reader. The percentage inhibition at individual concentrations relative to high and low controls was calculated. The data were analyzed by using nonlinear regression to generate IC50 values.

Consider `O=C(N[C@@H]1CCOC1)O[C@@H]1CCN(c2cn[nH]c(=O)c2Cl)C1` [P-0108, (R)-1-(5-chloro-6-oxo-1,6-dihydropyridazin-4-yl)pyrrolidin-3-yl ((R)-tetrahydrofuran-3-yl)carbamate], for which the IC50 (in assay [1]; at human CD73) was 0.001 to 10 µM in each case.

Consider `C[C@H]1CC[C@H](NC(=O)O[C@@H]2CCN(c3cn[nH]c(=O)c3Cl)C2)CC1` [P-0109, (R)-1-(5-chloro-6-oxo-1,6-dihydropyridazin-4-yl)pyrrolidin-3-yl ((1r,4R)-4-methylcyclohexyl)carbamate], for which the IC50 (in assay [1]; at human CD73) was 0.001 to 10 µM throughout.

Turning to `C[C@H]1CC[C@@H](NC(=O)O[C@@H]2CCN(c3cn[nH]c(=O)c3Cl)C2)CC1` [P-0110, (R)-1-(5-chloro-6-oxo-1,6-dihydropyridazin-4-yl)pyrrolidin-3-yl ((1s,4S)-4-methylcyclohexyl)carbamate], the IC50 (in assay [1]; at human CD73) was 0.001 to 10 µM each time.

As for `O=C(NC1C2CC3CC(C2)CC1C3)O[C@@H]1CCN(c2cn[nH]c(=O)c2Cl)C1` (stereo partly drawn) [P-0111, (R)-1-(5-chloro-6-oxo-1,6-dihydropyridazin-4-yl)pyrrolidin-3-yl adamantan-2-ylcarbamate], the IC50 (in assay [1]; on human CD73) was 0.001 to 10 µM each time.

Turning to `O=C(NC1CCC(F)(F)C1)O[C@@H]1CCN(c2cn[nH]c(=O)c2Cl)C1` (stereo partly drawn) [P-0112, (R)-1-(5-chloro-6-oxo-1,6-dihydropyridazin-4-yl)pyrrolidin-3-yl (3,3-difluorocyclopentyl)carbamate], the IC50 (in assay [1]; at human CD73) was 0.001 to 10 µM in each case.

For the compound `CC1(NC(=O)O[C@@H]2CCN(c3cn[nH]c(=O)c3Cl)C2)CCOC1` (stereo partly drawn) [P-0113, (R)-1-(5-chloro-6-oxo-1,6-dihydropyridazin-4-yl)pyrrolidin-3-yl (3-methyltetrahydrofuran-3-yl)carbamate], the IC50 (in assay [1]; at human CD73) was 0.001 to 10 µM throughout.

As for `N#CC1CCC(NC(=O)O[C@@H]2CCN(c3cn[nH]c(=O)c3Cl)C2)CC1` (stereo partly drawn) [P-0114, (R)-1-(5-chloro-6-oxo-1,6-dihydropyridazin-4-yl)pyrrolidin-3-yl (4-cyanocyclohexyl)carbamate], the IC50 (in assay [1]; at human CD73) was 0.001 to 10 µM throughout.

Consider `O=C(NC1CC2(CCC2)C1)O[C@@H]1CCN(c2cn[nH]c(=O)c2Cl)C1` [P-0115, (R)-1-(5-chloro-6-oxo-1,6-dihydropyridazin-4-yl)pyrrolidin-3-yl spiro[3.3]heptan-2-ylcarbamate], for which the IC50 (in assay [1]; on human CD73) was 0.001 to 10 µM throughout.

For the compound `CS(=O)(=O)NC1CCC(NC(=O)O[C@@H]2CCN(c3cn[nH]c(=O)c3Cl)C2)CC1` (stereo partly drawn) [P-0116, (R)-1-(5-chloro-6-oxo-1,6-dihydropyridazin-4-yl)pyrrolidin-3-yl (4-(methylsulfonamido)cyclohexyl)carbamate], the IC50 (in assay [1]; at human CD73) was 0.001 to 10 µM throughout.

On to `O=C(NC1CC2CCC1O2)O[C@@H]1CCN(c2cn[nH]c(=O)c2Cl)C1` (stereo partly drawn) [P-0117, (R)-1-(5-chloro-6-oxo-1,6-dihydropyridazin-4-yl)pyrrolidin-3-yl (7-oxabicyclo[2.2.1]heptan-2-yl)carbamate], for which the IC50 (in assay [1]; on human CD73) was 0.001 to 10 µM in each case.

In the case of `O=C(NC1(C2CC2)CC1)O[C@@H]1CCN(c2cn[nH]c(=O)c2Cl)C1` [P-0118, (R)-1-(5-chloro-6-oxo-1,6-dihydropyridazin-4-yl)pyrrolidin-3-yl [1,1′-bi(cyclopropan)]-1-ylcarbamate], the IC50 (in assay [1]; at human CD73) was 0.001 to 10 µM each time.

Consider `O=C(NC1CC(O)C1)O[C@@H]1CCN(c2cn[nH]c(=O)c2Cl)C1` (stereo partly drawn) [P-0119, (R)-1-(5-chloro-6-oxo-1,6-dihydropyridazin-4-yl)pyrrolidin-3-yl (3-hydroxycyclobutyl)carbamate], for which the IC50 (in assay [1]; on human CD73) was 0.001 to 10 µM in each case.

Regarding `O=C(NC1CCN(C2CCCC2)CC1)O[C@@H]1CCN(c2cn[nH]c(=O)c2Cl)C1` [P-0121, (R)-1-(5-chloro-6-oxo-1,6-dihydropyridazin-4-yl)pyrrolidin-3-yl (1-cyclopentylpiperidin-4-yl)carbamate], the IC50 (in assay [1]; at human CD73) was 0.001 to 10 µM throughout.

In the case of `CC(C)N1CCC(NC(=O)O[C@@H]2CCN(c3cn[nH]c(=O)c3Cl)C2)CC1` [P-0122, (R)-1-(5-chloro-6-oxo-1,6-dihydropyridazin-4-yl)pyrrolidin-3-yl (1-isopropylpiperidin-4-yl)carbamate], the IC50 (in assay [1]; at human CD73) was 0.001 to 10 µM throughout.

For `O=C(NC1CCN(c2ncccn2)CC1)O[C@@H]1CCN(c2cn[nH]c(=O)c2Cl)C1` [P-0123, (R)-1-(5-chloro-6-oxo-1,6-dihydropyridazin-4-yl)pyrrolidin-3-yl (1-(pyrimidin-2-yl)piperidin-4-yl)carbamate], the IC50 (in assay [1]; at human CD73) was 0.001 to 10 µM throughout.

On to `CC(C)(C)OC(=O)NC1CCC(NC(=O)O[C@@H]2CCN(c3cn[nH]c(=O)c3Cl)C2)CC1` (stereo partly drawn) [P-0124, (R)-tert-butyl (1-(5-chloro-6-oxo-1,6-dihydropyridazin-4-yl)pyrrolidin-3-yl) cyclohexane-1,4-diyldicarbamate], for which the IC50 (in assay [1]; on human CD73) was 0.001 to 10 µM in each case.

As to `NC1CCC(NC(=O)O[C@@H]2CCN(c3cn[nH]c(=O)c3Cl)C2)CC1` (stereo partly drawn) [P-0125, (R)-1-(5-chloro-6-oxo-1,6-dihydropyridazin-4-yl)pyrrolidin-3-yl (4-aminocyclohexyl)carbamate], the IC50 (in assay [1]; on human CD73) was 0.001 to 10 µM each time.

In the case of `N#Cc1c(N2CC[C@@H](OC(=O)NC3CCCCC3)C2)cn[nH]c1=O` [P-0127, (R)-1-(5-cyano-6-oxo-1,6-dihydropyridazin-4-yl)pyrrolidin-3-yl cyclohexylcarbamate], the IC50 (in assay [1]; on human CD73) was 0.001 to 10 µM each time.

In the case of `CS(=O)(=O)N[C@H]1CC[C@@H](NC(=O)O[C@@H]2CCN(c3cn[nH]c(=O)c3Cl)C2)CC1` [P-0128, (R)-1-(5-chloro-6-oxo-1,6-dihydropyridazin-4-yl)pyrrolidin-3-yl ((1s,4S)-4-(methylsulfonamido)cyclohexyl)carbamate], the IC50 (in assay [1]; at human CD73) was 0.001 to 10 µM each time.

Turning to `CS(=O)(=O)N[C@H]1CC[C@H](NC(=O)O[C@@H]2CCN(c3cn[nH]c(=O)c3Cl)C2)CC1` [P-0129, (R)-1-(5-chloro-6-oxo-1,6-dihydropyridazin-4-yl)pyrrolidin-3-yl ((1r,4R)-4-(methylsulfonamido)cyclohexyl)carbamate], the IC50 (in assay [1]; at human CD73) was 0.001 to 10 µM throughout.

As to `O=C(NC1CCCCC1)O[C@@H]1CCN(c2cnn(-c3cccc(C(=O)O)c3)c(=O)c2Cl)C1` [P-0130, (R)-3-(5-chloro-4-(3-((cyclohexylcarbamoyl)oxy)pyrrolidin-1-yl)-6-oxopyridazin-1(6H)-yl)benzoic acid], the IC50 (in assay [1]; on human CD73) was 10 to 100 µM in each case.

For the compound `O=C(N[C@H]1CC[C@H](O)CC1)O[C@@H]1CCN(c2cn[nH]c(=O)c2Cl)C1` [P-0131, (R)-1-(5-chloro-6-oxo-1,6-dihydropyridazin-4-yl)pyrrolidin-3-yl ((1r,4R)-4-hydroxycyclohexyl)carbamate], the IC50 (in assay [1]; at human CD73) was 0.001 to 10 µM in each case.

`O=C(N[C@H]1CCCOC1)O[C@@H]1CCN(c2cn[nH]c(=O)c2Cl)C1` [P-0132, (R)-1-(5-chloro-6-oxo-1,6-dihydropyridazin-4-yl)pyrrolidin-3-yl ((S)-tetrahydro-2H-pyran-3-yl)carbamate]: the IC50 (in assay [1]; on human CD73) was 0.001 to 10 µM throughout.

Take `CC1(NC(=O)O[C@@H]2CCN(c3cn[nH]c(=O)c3Cl)C2)CCOCC1` [P-0133, (R)-1-(5-chloro-6-oxo-1,6-dihydropyridazin-4-yl)pyrrolidin-3-yl (4-methyltetrahydro-2H-pyran-4-yl)carbamate]: the concentration for half-maximal inhibition (IC50) (in assay [1]; at human CD73) was 0.001 to 10 µM throughout.
